Data taken from patent publication US9850225B2, “Compounds useful as immunomodulators” (BRISTOL-MYERS SQUIBB COMPANY, priority 2014, dated 2017).

Target: PD-1/PD-L1 interaction (PD-1-Ig / PD-L1-His) (Homo sapiens (Human), UniProt Q9NZQ7)
Experiment: PD-1/PD-L1 Homogenous Time-Resolved Fluorescence (HTRF) binding assay
Conditions: PD-1/PD-L1 HTRF binding assay; numeric value; read-out: Range or IC50
Outline: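 HTRF detection used 1 nM europium-cryptate anti-Ig and 20 nM APC anti-His. Compounds first saw 10 nM PD-L1-His for 15 min, and 20 nM PD-1-Ig was then added for another 15 min. Buffer was dPBS plus 0.1% BSA and 0.05% Tween-20. All concentrations are final.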

Sequence of PD-1/PD-L1 interaction (PD-1-Ig / PD-L1-His) (Q9NZQ7 other isoform, or with tags, fused parts or gaps): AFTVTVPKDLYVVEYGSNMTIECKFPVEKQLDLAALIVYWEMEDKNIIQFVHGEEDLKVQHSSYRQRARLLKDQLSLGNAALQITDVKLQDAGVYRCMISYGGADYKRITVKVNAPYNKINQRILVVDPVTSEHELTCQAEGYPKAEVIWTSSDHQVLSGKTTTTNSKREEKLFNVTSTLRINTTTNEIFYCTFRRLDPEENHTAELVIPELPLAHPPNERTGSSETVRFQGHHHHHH

| IC50 | SMILES |
| --- | --- |
| 0.05 µM | Cc1c(COc2cc(OCc3cncc(C#N)c3)c(CN[C@@H](Cc3cccnc3)C(=O)O)cc2Cl)cccc1-c1ccc2c(c1)OCCO2 [Example 2010, (S)-2-((5-chloro-2-((5-cyanopyridin-3-yl)methoxy)-4-((3-(2,3-dihydrobenzo[b][1,4]dioxin-6-yl)-2-methylbenzyl)oxy)benzyl)amino)-3-(pyridin-3-yl)propanoic acid] |
| 0.08 µM | Cc1c(COc2cc(OCc3cncc(S(C)(=O)=O)c3)c(CO)cc2Cl)cccc1-c1ccc2c(c1)OCCO2 [Example 3013, (5-chloro-4-{[3-(2,3-dihydro-1,4-benzodioxin-6-yl)-2-methylphenyl]methoxy}-2-[(5-methanesulfonylpyridin-3-yl)methoxy]phenyl)methanol] |

Same assay, conditions: PD-1/PD-L1 HTRF binding assay; value given as range class; read-out: Range or IC50

| IC50 | SMILES |
| --- | --- |
| 0.0006 to 0.01 µM | Cc1c(COc2cc(OCc3cncc(C#N)c3)c(CNCC(=O)O)cc2Cl)cccc1-c1ccc2c(c1)OCCO2 [Example 2013, 2-((5-chloro-2-((5-cyanopyridin-3-yl)methoxy)-4-((3-(2,3-dihydrobenzo[b][1,4]dioxin-6-yl)-2-methylbenzyl)oxy)benzyl)amino)acetic acid] |
| 0.0006 to 0.01 µM | Cc1c(COc2cc(OCc3cncc(C#N)c3)c(CN[C@H](CO)C(=O)O)cc2F)cccc1-c1ccc2c(c1)OCCO2 [Example 3000] |
| 0.0006 to 0.01 µM | Cc1c(COc2cc(OCc3cncc(C#N)c3)c(CN[C@](C)(CO)C(=O)O)cc2F)cccc1-c1ccc2c(c1)OCCO2 [Example 3001] |
| 0.0006 to 0.01 µM | Cc1c(COc2cc(OCc3cncc(C#N)c3)c(CN3CCCC[C@H]3C(=O)O)cc2F)cccc1-c1ccc2c(c1)OCCO2 [Example 3002] |
| 0.0006 to 0.01 µM | CCOC(=O)Nc1cncc(COc2cc(OCc3cccc(-c4ccc5c(c4)OCCO5)c3C)c(Cl)cc2C=O)c1 [Example 3008, ethyl (5-((4-chloro-5-((3-(2,3-dihydrobenzo[b][1,4]dioxin-6-yl)-2-methylbenzyl)oxy)-2-formylphenoxy)methyl)pyridin-3-yl)carbamate] |
| 0.0006 to 0.01 µM | CCOC(=O)Nc1cncc(COc2cc(OCc3cccc(-c4ccc5c(c4)OCCO5)c3C)c(Cl)cc2CN[C@@](C)(CO)C(=O)O)c1 [Example 3009, (S)-2-((5-chloro-4-((3-(2,3-dihydrobenzo[b][1,4]dioxin-6-yl)-2-methylbenzyl)oxy)-2-((5-((ethoxycarbonyl)amino)pyridin-3-yl)methoxy)benzyl)amino)-3-hydroxy-2-methylpropanoic acid] |
| 0.1 to 20 µM | CC(=O)Nc1cc(COc2cc(OCc3cccc(-c4ccc5c(c4)OCCO5)c3C)c(Cl)cc2C=O)ccn1 [Example 3010, N-(4-((4-chloro-5-((3-(2,3-dihydrobenzo[b][1,4]dioxin-6-yl)-2-methylbenzyl)oxy)-2-formylphenoxy)methyl)pyridin-2-yl)acetamide] |
| 0.0006 to 0.01 µM | CC(=O)Nc1cc(COc2cc(OCc3cccc(-c4ccc5c(c4)OCCO5)c3C)c(Cl)cc2CN[C@@](C)(CO)C(=O)O)ccn1 [Example 3011, (S)-2-((2-((2-acetamidopyridin-4-yl)methoxy)-5-chloro-4-((3-(2,3-dihydrobenzo[b][1,4]dioxin-6-yl)-2-methylbenzyl)oxy)benzyl)amino)-3-hydroxy-2-methylpropanoic acid] |
| 0.0006 to 0.01 µM | Cc1c(COc2cc(OCc3cncc(S(C)(=O)=O)c3)c(CN[C@@](C)(CO)C(=O)O)cc2Cl)cccc1-c1ccc2c(c1)OCCO2 [Example 3012, (S)-2-((5-chloro-4-((3-(2,3-dihydrobenzo[b][1,4]dioxin-6-yl)-2-methylbenzyl)oxy)-2-((5-(methylsulfonyl)pyridin-3-yl)methoxy)benzyl)amino)-3-hydroxy-2-methylpropanoic acid] |

The remaining lines, values behind:

| SMILES | IC50 |
| --- | --- |
| Cc1c(COc2cc(OCc3cncc(C#N)c3)c(CN[C@@H](CCCN)C(=O)O)cc2Cl)cccc1-c1ccc2c(c1)OCCO2 [Example 2003, (S)-5-amino-2-((5-chloro-2-((5-cyanopyridin-3-yl)methoxy)-4-((3-(2,3-dihydrobenzo[b][1,4]dioxin-6-yl)-2-methylbenzyl)oxy)benzyl)amino)pentanoic acid] | 0.0006 to 0.01 µM |
| Cc1c(COc2cc(OCc3cncc(C#N)c3)c(CN[C@@H](CCCCN)C(=O)O)cc2Cl)cccc1-c1ccc2c(c1)OCCO2 [Example 2004, (S)-6-amino-2-((5-chloro-2-((5-cyanopyridin-3-yl)methoxy)-4-((3-(2,3-dihydrobenzo[b][1,4]dioxin-6-yl)-2-methylbenzyl)oxy)benzyl)amino)hexanoic acid] | 0.0006 to 0.01 µM |
| Cc1c(COc2cc(OCc3cncc(C#N)c3)c(CN[C@@H](CCN)C(=O)O)cc2Cl)cccc1-c1ccc2c(c1)OCCO2 [Example 2005, (S)-4-amino-2-((5-chloro-2-((5-cyanopyridin-3-yl)methoxy)-4-((3-(2,3-dihydrobenzo[b][1,4]dioxin-6-yl)-2-methylbenzyl)oxy)benzyl)amino)butanoic acid] | 0.01 to 0.1 µM |
| Cc1c(COc2cc(OCc3cncc(C#N)c3)c(CN[C@@H](CCCCN(C)C)C(=O)O)cc2Cl)cccc1-c1ccc2c(c1)OCCO2 [Example 2006, (S)-2-((5-chloro-2-((5-cyanopyridin-3-yl)methoxy)-4-((3-(2,3-dihydrobenzo[b][1,4]dioxin-6-yl)-2-methylbenzyl)oxy)benzyl)amino)-6-(dimethylamino)hexanoic acid] | 0.0006 to 0.01 µM |
| Cc1c(COc2cc(OCc3cncc(C#N)c3)c(CN3C[C@@H](O)CC[C@H]3C(=O)O)cc2Cl)cccc1-c1ccc2c(c1)OCCO2 [Example 2007, (2S,5S)-1-(5-chloro-2-((5-cyanopyridin-3-yl)methoxy)-4-((3-(2,3-dihydrobenzo[b][1,4]dioxin-6-yl)-2-methylbenzyl)oxy)benzyl)-5-hydroxypiperidine-2-carboxylic acid] | 0.0006 to 0.01 µM |
| Cc1c(COc2cc(OCc3cncc(C#N)c3)c(CN3CC[C@@H](O)C[C@H]3C(=O)O)cc2Cl)cccc1-c1ccc2c(c1)OCCO2 [Example 2008, (2S,4R)-1-(5-chloro-2-((5-cyanopyridin-3-yl)methoxy)-4-((3-(2,3-dihydrobenzo[b][1,4]dioxin-6-yl)-2-methylbenzyl)oxy)benzyl)-4-hydroxypiperidine-2-carboxylic acid] | 0.0006 to 0.01 µM |
| Cc1c(COc2cc(OCc3cncc(C#N)c3)c(CN[C@@H](Cc3ccccn3)C(=O)O)cc2Cl)cccc1-c1ccc2c(c1)OCCO2 [Example 2009, (S)-2-((5-chloro-2-((5-cyanopyridin-3-yl)methoxy)-4-((3-(2,3-dihydrobenzo[b][1,4]dioxin-6-yl)-2-methylbenzyl)oxy)benzyl)amino)-3-(pyridin-2-yl)propanoic acid] | 0.0006 to 0.01 µM |
| Cc1c(COc2cc(OCc3cncc(C#N)c3)c(CN[C@@H](Cc3ccncc3)C(=O)O)cc2Cl)cccc1-c1ccc2c(c1)OCCO2 [Example 2011, (S)-2-((5-chloro-2-((5-cyanopyridin-3-yl)methoxy)-4-((3-(2,3-dihydrobenzo[b][1,4]dioxin-6-yl)-2-methylbenzyl)oxy)benzyl)amino)-3-(pyridin-4-yl)propanoic acid] | 0.01 to 0.1 µM |
| Cc1c(COc2cc(OCc3cncc(C#N)c3)c(CN[C@@H](CCC(=O)O)C(=O)O)cc2Cl)cccc1-c1ccc2c(c1)OCCO2 [Example 2012, (S)-2-((5-chloro-2-((5-cyanopyridin-3-yl)methoxy)-4-((3-(2,3-dihydrobenzo[b][1,4]dioxin-6-yl)-2-methylbenzyl)oxy)benzyl)amino)pentanedioic acid] | 0.0006 to 0.01 µM |
